The results in this text go back to the SangsterLogP compilation.

The data set is described as follows: method code SF-AS, from DOI: 10.1080/10826079608005496.
A word on the logP: it is a log measure of how a compound divides between an organic and an aqueous phase. Compound `CC(C)OC(=O)CS(=O)(=O)c1ccccc1[N+](=O)[O-]` showed a log partition coefficient (logP) of 1.6.

In the case of `CC(C)OC(=O)CSc1ccc([N+](=O)[O-])cc1[N+](=O)[O-]`, the log partition coefficient (logP) was determined as 2.72.

`COC(=O)CSc1ccc([N+](=O)[O-])cc1Cl`: the log partition coefficient (logP) is 2.66.

In turn, `COC(=O)CS(=O)(=O)c1ccc(Cl)cc1[N+](=O)[O-]` yielded a logP of 1.6.

On to `CC(C)OC(=O)CS(=O)(=O)c1ccc([N+](=O)[O-])cc1`, for which the logP came to 1.79.

The compound `COC(=O)CSc1ccc(Cl)cc1[N+](=O)[O-]` returned a logP of 2.5.

In the case of `CC(C)OC(=O)CSc1ccc(Cl)cc1[N+](=O)[O-]`, the log partition coefficient (logP) came to 3.14.

On to `COC(=O)CS(=O)c1ccc([N+](=O)[O-])cc1[N+](=O)[O-]` (stereo not drawn), for which the lipophilicity (logP) was determined as 0.79.

In turn, `CC(C)OC(=O)CSc1ccc([N+](=O)[O-])cc1Cl` yielded a logP of 3.29.

In turn, `CC(C)OC(=O)CS(=O)c1ccc([N+](=O)[O-])cc1Cl` (stereo not drawn) had a logP of 2.04.

Compound `CC(C)OC(=O)CS(=O)(=O)c1ccc(Cl)cc1[N+](=O)[O-]` returned a lipophilicity (logP) of 2.24.

For the compound `CC(C)OC(=O)CSc1ccc([N+](=O)[O-])cc1`, the log partition coefficient (logP) is 2.66.

Compound `CC(C)OC(=O)CS(=O)(=O)c1ccc([N+](=O)[O-])cc1Cl` had a log partition coefficient (logP) of 2.12.
